# Measured values: paper PMC8042380, “Brusatol Derivative–34 Attenuates Allergic Airway Inflammation Via Inhibition of the Spleen Tyrosine Kinase Pathway” (Frontiers in Pharmacology, 2021)
# Target: Spleen tyrosine kinase (Syk) (Homo sapiens, UniProt P43405)
# Assay: ADP-Glo kinase assay with purified active Syk (Promega Syk Kinase Enzyme System V3801), Poly E4Y1 substrate, ATP
# Type: biochemical
compound,measurement,value
"COC(=O)[C@@]12OC[C@@]34C(CC5C(C)=C(OC(=O)CCC(=O)OCCCCOc6no[n+]([O-])c6S(=O)(=O)c6ccccc6)C(=O)C[C@]5(C)C3[C@@H](O)[C@@H]1O)OC(=O)[C@H](OC(=O)C=C(C)C)C42 (stereo partly shown) [Bru-34, Brusatol derivative-34]",IC50,540 nM
